Earlier results in patent US7160060B1, “System and method of remediation of contaminants” (priority 2004, dated 2007).
Read-outs that look alike come from different tables or passages of the source.

[1] = select polycyclic aromatic hydrocarbons (Table 3)
[2] = select chlorinated organics (Table 1)

Row | Structure (SMILES) | SOLUBILITY IN WATER at 25° C. [1] [mg/L] | SOLUBILITY IN WATER at 25° C. [2] | also measured
1 | c1ccc2cc3ccccc3cc2c1 [Anthracene] | 0.075 | – | –
2 | c1ccc2c(c1)cc1ccc3cccc4ccc2c1c34 [Benzo(a)pyrene] | 0.0016 | – | –
3 | c1cc2ccc3ccc4ccc5cccc6c(c1)c2c3c4c56 [Benzo(g,h,i)perylene] | 0.00026 | – | –
4 | c1ccc2c(c1)ccc1c3ccccc3ccc21 [Chrysene] | 0.00189 | – | –
5 | c1ccc2c(c1)ccc1cc3c(ccc4ccccc43)cc12 [Dibenz(a,h)anthracene] | 0.0006 | – | –
6 | ClC(Cl)=C(Cl)Cl [Perchloroethylene] | – | 150 mg/L | –
7 | c1ccc2c(c1)ccc1ccccc12 [Phenanthrene] | 1.18 | – | –
8 | ClC=C(Cl)Cl [Trichloroethylene] | – | 1,280 mg/L | –
9 | C=CCl [Vinyl Chloride] | – | 8,800 mg/L | –
10 | Cc1ccc(C)cc1 [p-xylene isomer, p-xylene] | – | – | SOLUBILITY IN WATER at 25° C. (select volatile organic chemicals (BTEX) (Table 2)): 198 mg/L
